Data on 1 molecule can be found in BindingDB's records for doi:10.1021/acs.jmedchem.3c01130 (University of Toledo College of Medicine and Life Sciences, 2023).

pIC50: −log10 of the molar value.

For orientation: pIC50 means −log10 of the IC50, conventionally taken in molar units. A high value points to a small IC50.

This experiment addresses Transcription factor Sp1 (Homo sapiens, UniProt P08047). The experiment can be described thus: Inhibition of human SP1 transfected in PC-3 cells by renilla luciferase reporter gene assay. In general terms: Reporter assays use an easily measured gene product as a stand-in for the process of interest.

Transcription factor Sp1, sequence (P08047 whole entry): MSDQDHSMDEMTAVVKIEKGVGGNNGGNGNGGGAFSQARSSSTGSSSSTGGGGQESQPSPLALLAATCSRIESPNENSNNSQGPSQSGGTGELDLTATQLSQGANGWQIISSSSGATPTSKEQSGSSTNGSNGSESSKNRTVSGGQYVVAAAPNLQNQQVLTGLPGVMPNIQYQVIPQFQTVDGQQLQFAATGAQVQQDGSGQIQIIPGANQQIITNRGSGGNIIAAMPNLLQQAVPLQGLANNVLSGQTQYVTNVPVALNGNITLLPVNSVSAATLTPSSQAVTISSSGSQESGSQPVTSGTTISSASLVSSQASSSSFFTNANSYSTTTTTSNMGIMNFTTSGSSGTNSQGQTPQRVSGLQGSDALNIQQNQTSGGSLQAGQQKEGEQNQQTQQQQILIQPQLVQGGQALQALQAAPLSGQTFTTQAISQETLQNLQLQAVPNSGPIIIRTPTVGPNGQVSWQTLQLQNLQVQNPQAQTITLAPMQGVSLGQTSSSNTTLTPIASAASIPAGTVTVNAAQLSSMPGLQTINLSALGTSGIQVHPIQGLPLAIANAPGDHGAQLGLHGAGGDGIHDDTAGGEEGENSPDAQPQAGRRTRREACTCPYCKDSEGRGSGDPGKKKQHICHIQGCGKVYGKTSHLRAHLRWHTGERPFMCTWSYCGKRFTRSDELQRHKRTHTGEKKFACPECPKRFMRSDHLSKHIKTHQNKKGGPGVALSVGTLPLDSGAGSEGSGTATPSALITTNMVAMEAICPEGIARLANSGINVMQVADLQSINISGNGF

In turn, `COCC[n+]1c2c(n(Cc3cnccn3)c1C)C(=O)c1ccccc1C2=O` [Sepantronium Bromide] gave a negative-log IC50 (pIC50) of 8.10.
